Assay results published in paper PMC6556873, “Rapid Covalent-Probe Discovery by Electrophile-Fragment Screening” (Journal of the American Chemical Society, 2019).
Like-named read-outs stand apart in the source and are kept apart here.

Key:
[1] = in vitro; set-up: species or system HB2, HEK293; settings: human, ccd841 cells
[2] = in vitro; set-up: species or system CCD841, HEK293; settings: human, hb2 cells, read-out: HB-2 Cells Viability (%)
[3] = in vitro; set-up: species or system HB2, CCD841; settings: human, hek293 cells
[4] = molecular target: T1, OTUB2 (OTUB2A) (Homo sapiens, UniProt Q96DC9); set-up: Intact protein LC/MS covalent labelling, fragments in pools of five, 200 uM each, 4 °C; settings: 24 h, 4 °C, pool of five; 200 µM; covalent
T1 construct: full length residues 1-234, E. coli BL21(DE3)-R3, His tag removed by TEV, construct 27312 Da
T1 sequence (Q96DC9 1-234): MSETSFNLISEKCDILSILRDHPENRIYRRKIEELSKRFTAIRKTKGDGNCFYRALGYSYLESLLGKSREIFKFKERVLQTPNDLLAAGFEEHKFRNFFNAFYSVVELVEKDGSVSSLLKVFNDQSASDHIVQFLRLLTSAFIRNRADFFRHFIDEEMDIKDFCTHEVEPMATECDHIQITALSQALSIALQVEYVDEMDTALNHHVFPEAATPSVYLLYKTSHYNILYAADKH

[5] = molecular target: T2, PCAF (Homo sapiens, UniProt Q92831); set-up: Intact protein LC/MS covalent labelling, fragments in pools of five, 200 uM each, 4 °C; settings: 24 h, 4 °C, pool of five; 200 µM; covalent
T2 construct: gene KAT2B
T2 sequence (Q92831 whole entry, the tested form may be a part): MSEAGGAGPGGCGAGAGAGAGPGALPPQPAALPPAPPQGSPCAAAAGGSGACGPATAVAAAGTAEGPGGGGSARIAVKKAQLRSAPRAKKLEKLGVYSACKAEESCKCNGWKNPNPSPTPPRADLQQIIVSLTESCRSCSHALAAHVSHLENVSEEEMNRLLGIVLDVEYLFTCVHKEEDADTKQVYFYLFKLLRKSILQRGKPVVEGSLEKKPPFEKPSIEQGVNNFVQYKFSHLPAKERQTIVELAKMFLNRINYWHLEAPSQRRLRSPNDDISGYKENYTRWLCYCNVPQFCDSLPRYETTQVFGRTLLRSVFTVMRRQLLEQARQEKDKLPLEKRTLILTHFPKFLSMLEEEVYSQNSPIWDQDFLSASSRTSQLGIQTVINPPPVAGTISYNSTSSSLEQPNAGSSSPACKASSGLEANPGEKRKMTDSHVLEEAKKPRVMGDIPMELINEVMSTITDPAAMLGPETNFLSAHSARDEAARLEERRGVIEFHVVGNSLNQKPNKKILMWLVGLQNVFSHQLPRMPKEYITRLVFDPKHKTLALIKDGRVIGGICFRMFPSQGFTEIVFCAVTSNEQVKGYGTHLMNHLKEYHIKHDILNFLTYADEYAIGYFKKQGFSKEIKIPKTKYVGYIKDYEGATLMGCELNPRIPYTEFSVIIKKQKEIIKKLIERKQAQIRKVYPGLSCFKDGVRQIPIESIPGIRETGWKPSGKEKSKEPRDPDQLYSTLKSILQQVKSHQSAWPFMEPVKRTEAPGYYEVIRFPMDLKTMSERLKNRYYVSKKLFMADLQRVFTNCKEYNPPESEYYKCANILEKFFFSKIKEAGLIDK

[6] = molecular target: T3, BSA (Bos taurus, UniProt P02769); set-up: Intact protein LC/MS covalent labelling, fragments in pools of five, 200 uM each, 4 °C; settings: 24 h, 4 °C, pool of five; 200 µM; covalent
T3 construct: gene ALB
T3 sequence (P02769 whole entry, the tested form may be a part): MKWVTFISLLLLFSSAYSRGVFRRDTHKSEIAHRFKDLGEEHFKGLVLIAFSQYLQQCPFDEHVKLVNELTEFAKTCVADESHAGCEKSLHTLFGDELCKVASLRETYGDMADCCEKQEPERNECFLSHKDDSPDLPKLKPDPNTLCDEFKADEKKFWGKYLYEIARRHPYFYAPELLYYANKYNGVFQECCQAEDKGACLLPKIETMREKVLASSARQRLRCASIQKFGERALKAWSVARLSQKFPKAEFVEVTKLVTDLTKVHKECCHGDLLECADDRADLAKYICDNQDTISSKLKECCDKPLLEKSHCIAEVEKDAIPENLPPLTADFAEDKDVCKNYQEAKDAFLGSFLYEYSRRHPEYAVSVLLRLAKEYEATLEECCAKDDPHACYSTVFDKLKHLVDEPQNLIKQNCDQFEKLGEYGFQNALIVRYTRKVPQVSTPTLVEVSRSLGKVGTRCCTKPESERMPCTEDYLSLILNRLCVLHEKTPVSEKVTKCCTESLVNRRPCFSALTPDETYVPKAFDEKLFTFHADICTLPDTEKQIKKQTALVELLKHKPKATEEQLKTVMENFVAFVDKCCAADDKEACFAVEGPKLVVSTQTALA

[7] = molecular target: T4, NUDT7 (Homo sapiens, UniProt P0C024); set-up: Intact protein LC/MS covalent labelling, fragments in pools of five, 200 uM each, 4 °C; settings: 24 h, 4 °C, pool of five; 200 µM; covalent
T4 construct: residues 14-235, E. coli, pNIC28-Bsa4, N-terminal His6 tag removed by TEV, construct 26672 Da
T4 sequence (P0C024 14-235): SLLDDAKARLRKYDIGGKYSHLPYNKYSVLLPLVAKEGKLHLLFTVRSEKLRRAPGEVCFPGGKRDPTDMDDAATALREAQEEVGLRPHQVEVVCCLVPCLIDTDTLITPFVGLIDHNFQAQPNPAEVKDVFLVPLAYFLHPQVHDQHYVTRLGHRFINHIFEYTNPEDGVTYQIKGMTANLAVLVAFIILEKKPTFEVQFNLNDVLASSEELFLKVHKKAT

SMILES	OTUB2 [4]	PCAF [5]	BSA [6]	NUDT7 [7]	viability at 48 h, 10 µM [1] [%]	viability at 48 h, 10 µM [2] [%]	viability at 48 h, 10 µM [3] [%]
COC(=O)c1ccccc1N(C)C(=O)CCl [PCM-0102589]	0	0	0	0.15	89.7	92.1	58.9
CN(Cc1ccccc1Br)C(=O)CCl [PCM-0102592]	0.12	0	0	0.14	71.9	27.4	39
C=CC(=O)N1CCC(C(=O)N2CCN(C(C)=O)CC2)CC1 [PCM-0102593]	0	0	0	0	111	98.3	105
CCN(C(=O)CCl)C1CC1 [PCM-0102594]	0	0	0	0	95.2	100	92.7
O=C(CCl)NCC1CCOC1 (stereo not shown) [PCM-0102596]	0.13	0	0	0	90.8	93.6	112
C=CC(=O)N1CC(c2nc(C)no2)C1 [PCM-0102599]	0	0	0	0	102	108	90.9
C=CC(=O)N1CCCC2(CCS(=O)(=O)C2)C1 (stereo not shown) [PCM-0102600]	0	0	0	0.05	121	107	98.9
C=CC(=O)N1CC(NC(=O)C(F)(F)F)CCC1C(F)(F)F (stereo not shown) [PCM-0102603]	0	0	0	0	104	97.9	110
C=CC(=O)N1CCCC(c2nnc3ccc(C(F)(F)F)cn23)C1 (stereo not shown) [PCM-0102606]	0	0	0	0	111	107	126
C=CC(=O)N1CCCC(CC(=O)OC(C)(C)C)CC1 (stereo not shown) [PCM-0102609]	0.06	0	0	0	104	106	90.6

Second part, led by results:

OTUB2 [4]	PCAF [5]	BSA [6]	NUDT7 [7]	SMILES	viability at 48 h, 10 µM [1] [%]	viability at 48 h, 10 µM [2] [%]	viability at 48 h, 10 µM [3] [%]
0	0	0	0	O=C(CCl)Nc1cc(C(=O)O)ccc1Cl [PCM-0102590]	102	103	110
0	0	0	0	C=CC(=O)N1CCC(NC(=O)c2ccncc2)CC1 [PCM-0102595]	102	102	94.7
0	0	0	0	CC(NC(=O)CCl)C(=O)N1CCCCC1 (stereo not shown) [PCM-0102598]	99.9	101	98.7
0	0	0	0	C=CC(=O)NC1CCN(c2ccc(C(F)(F)F)cn2)CC1 [PCM-0102602]	94.7	103	62.4
0	0	0	0	C=CC(=O)N1CCCC(NC(=O)c2ccc(C(F)(F)F)cc2)C1 (stereo not shown) [PCM-0102607]	100	98.9	114
0.37	0	0	0	O=C(CCl)Nc1ccc(N2CCCCC2)cc1 [PCM-0102612]	55.2	41.7	57.2
